Procedure: Solubility profiles for co-crystals were determined by UV-vis spectroscopy (Perkin Elmer-Lambda 25 UV-vis spectrometer, 400 nm).
The solubility of KP10 in 1:1 ethanol/water (V/V %) was determined by UV-vis spectroscopy, with a wavelength of 360 nm.
The solubility of KP15 in 1:1 ethanol/water (V/V %) was determined by UV-vis spectroscopy, with a wavelength of 300 nm.

Co-Crystal of Hesperetin and Iso-Nicotinamide [KP15]
increase in the solubility of hesperetin in the co-crystal when compared to pure hesperetin: approximately 12 fold

Co-Crystal of Quercetin and Iso-Nicotinamide [KP10]
increase in the solubility of quercetin in the co-crystal when compared to quercetin dehydrate: ~6 fold
